From the CheMixHub ionic liquid set
± gives the uncertainty stated by the source.

Experiment: xn = mol fraction of the nth substance listed

C[NH+](C)C.O=S(=O)([N-]S(=O)(=O)C(F)(F)F)C(F)(F)F + N#CCCCC#N
101 kPa, x1 = 0.2167
Details | viscosity [mPa·s]
288 K | 15.76 ± 0.21
298 K | 11.43 ± 0.15
318 K | 6.747 ± 0.082
353 K | 3.452 ± 0.04

CNC(C)=O + CCCC[n+]1ccn(C)c1.F[B-](F)(F)F
101 kPa
Details | viscosity [mPa·s]
293.15 K, x2 = 0.0711 | 6.4 ± 0.39
293.15 K, x2 = 0.1409 | 7.42 ± 0.45
293.15 K, x2 = 0.4343 | 19.1 ± 1.2
293.15 K, x2 = 0.7774 | 65.8 ± 4
298.15 K, x2 = 0.0711 | 5.41 ± 0.33
298.15 K, x2 = 0.2042 | 7.19 ± 0.44
298.15 K, x2 = 0.4992 | 19.7 ± 1.2
298.15 K, x2 = 0.7774 | 51.7 ± 3.1
303.15 K, x2 = 0.1409 | 5.66 ± 0.34
308.15 K, x2 = 0 | 3.53 ± 0.21
308.15 K, x2 = 0.714 | 24.7 ± 1.5
313.15 K, x2 = 0.4992 | 9.8 ± 0.59
318.15 K, x2 = 0.0711 | 3.3 ± 0.2
318.15 K, x2 = 0.1409 | 3.74 ± 0.23

CC[n+]1ccn(C)c1.F[P-](F)(F)(F)(F)F + CC(C)C[C@H](N)C(=O)O + O
100 kPa
Details | electrical conductivity, 298.15 K [S/m] | electrical conductivity, 303.15 K [S/m] | electrical conductivity, 308.15 K [S/m] | viscosity, 298.15 K [mPa·s] | viscosity, 303.15 K [mPa·s] | viscosity, 308.15 K [mPa·s]
x2 = 0.0001802, x1 = 1.802e-05 | 0.011 ± 0.0011 | 0.0123 ± 0.0012 | 0.0135 ± 0.0014 | 0.925 ± 0.071 | 0.857 ± 0.07 | 0.783 ± 0.07
x2 = 0.0001803, x1 = 5.405e-05 | 0.0293 ± 0.0029 | 0.0326 ± 0.0033 | 0.0354 ± 0.0035 | 0.94 ± 0.071 | 0.862 ± 0.071 | 0.788 ± 0.07
x2 = 0.0001804, x1 = 9.008e-05 | 0.0464 ± 0.0046 | 0.0517 ± 0.0052 | 0.0561 ± 0.0056 | 0.955 ± 0.071 | 0.866 ± 0.071 | 0.793 ± 0.07
x2 = 0.0004522, x1 = 1.801e-05 | 0.0109 ± 0.0011 | 0.0122 ± 0.0012 | 0.0133 ± 0.0013 | 0.933 ± 0.071 | 0.864 ± 0.071 | 0.791 ± 0.07
x2 = 0.0004524, x1 = 5.403e-05 | 0.0295 ± 0.0029 | 0.0328 ± 0.0033 | 0.0353 ± 0.0035 | 0.946 ± 0.071 | 0.868 ± 0.071 | 0.795 ± 0.07
x2 = 0.0004526, x1 = 9.005e-05 | 0.0461 ± 0.0046 | 0.0514 ± 0.0051 | 0.0557 ± 0.0056 | 0.962 ± 0.071 | 0.876 ± 0.071 | 0.802 ± 0.07
x2 = 0.0007258, x1 = 1.801e-05 | 0.0111 ± 0.0011 | 0.0122 ± 0.0012 | 0.0135 ± 0.0014 | 0.94 ± 0.071 | 0.872 ± 0.071 | 0.799 ± 0.07
x2 = 0.0007262, x1 = 5.402e-05 | 0.0293 ± 0.0029 | 0.0326 ± 0.0033 | 0.0351 ± 0.0035 | 0.957 ± 0.071 | 0.879 ± 0.071 | 0.805 ± 0.07
x2 = 0.0007265, x1 = 9.003e-05 | 0.0458 ± 0.0046 | 0.051 ± 0.0051 | 0.0558 ± 0.0056 | 0.973 ± 0.071 | 0.885 ± 0.071 | 0.812 ± 0.07
x2 = 0.0009976, x1 = 1.8e-05 | 0.0106 ± 0.0011 | 0.0118 ± 0.0012 | 0.013 ± 0.0013 | 0.947 ± 0.071 | 0.88 ± 0.071 | 0.806 ± 0.07
x2 = 0.000998, x1 = 5.4e-05 | 0.0288 ± 0.0029 | 0.032 ± 0.0032 | 0.0348 ± 0.0035 | 0.964 ± 0.071 | 0.885 ± 0.071 | 0.811 ± 0.07
x2 = 0.0009985, x1 = 9e-05 | 0.0451 ± 0.0045 | 0.0505 ± 0.005 | 0.055 ± 0.0055 | 0.981 ± 0.071 | 0.895 ± 0.071 | 0.82 ± 0.07
x2 = 0.001273, x1 = 1.8e-05 | 0.011 ± 0.0011 | 0.0122 ± 0.0012 | 0.0134 ± 0.0013 | 0.955 ± 0.071 | 0.888 ± 0.071 | 0.814 ± 0.07
x2 = 0.001273, x1 = 5.399e-05 | 0.0285 ± 0.0029 | 0.0318 ± 0.0032 | 0.0345 ± 0.0034 | 0.973 ± 0.071 | 0.895 ± 0.071 | 0.821 ± 0.07
x2 = 0.001274, x1 = 8.998e-05 | 0.0449 ± 0.0045 | 0.0502 ± 0.005 | 0.0545 ± 0.0054 | 0.991 ± 0.071 | 0.904 ± 0.071 | 0.827 ± 0.07
x2 = 0.001546, x1 = 1.799e-05 | 0.0112 ± 0.0011 | 0.0123 ± 0.0012 | 0.0136 ± 0.0014 | 0.961 ± 0.071 | 0.895 ± 0.071 | 0.822 ± 0.07
x2 = 0.001547, x1 = 5.397e-05 | 0.0283 ± 0.0028 | 0.0315 ± 0.0032 | 0.0344 ± 0.0034 | 0.982 ± 0.071 | 0.905 ± 0.071 | 0.831 ± 0.07
x2 = 0.001547, x1 = 8.995e-05 | 0.0445 ± 0.0044 | 0.0493 ± 0.0049 | 0.0541 ± 0.0054 | 1 ± 0.071 | 0.912 ± 0.071 | 0.841 ± 0.07

[I-].[Li+] + CC[n+]1ccn(C)c1.O=S(=O)([O-])C(F)(F)F
electrical conductivity [S/m], 101 kPa
Details | 288.15 K | 298.15 K | 333.15 K
x1 = 0.007746 | 0.575 ± 0.058 | 0.843 ± 0.085 | 2.22 ± 0.22
x1 = 0.01537 | 0.548 ± 0.055 | 0.817 ± 0.082 | 2.15 ± 0.21
x2 = 0.9746 | 0.556 ± 0.056 | 0.827 ± 0.083 | 2.17 ± 0.22

CC[n+]1ccn(C)c1.F[P-](F)(F)(F)(F)F + O
viscosity [mPa·s], 100 kPa
Details | 298.15 K | 303.15 K | 308.15 K
x1 = 1.802e-05 | 0.919 ± 0.07 | 0.85 ± 0.07 | 0.777 ± 0.07
x1 = 5.406e-05 | 0.933 ± 0.07 | 0.855 ± 0.07 | 0.782 ± 0.07
x1 = 9.009e-05 | 0.948 ± 0.07 | 0.86 ± 0.07 | 0.787 ± 0.07

CCCCCCCC[n+]1ccccc1.O=S(=O)([N-]S(=O)(=O)C(F)(F)F)C(F)(F)F + CCCCOC(C)=O
Details | electrical conductivity [S/m]
298.15 K, 100 kPa, x2 = 0.6824 | 0.371 ± 0.007

CC[n+]1ccn(CCOC)c1.N#C[S-] + CCCO
viscosity [mPa·s], 100 kPa
Details | x1 = 0.1001 | x1 = 0.2 | x1 = 0.3001 | x1 = 0.4001 | x1 = 0.5001 | x1 = 0.5719 | x1 = 0.701 | x1 = 0.7997 | x1 = 0.8987 | x1 = 1
288.15 K | 3.83 ± 0.21 | 5.71 ± 0.32 | 8.65 ± 0.49 | 14.3 ± 0.8 | 20 ± 1.1 | 28.2 ± 1.6 | 39.1 ± 2.2 | 55.7 ± 3.1 | 71.5 ± 4 | 93.1 ± 5.3
293.15 K | 3.38 ± 0.19 | 4.99 ± 0.28 | 7.53 ± 0.42 | 12.15 ± 0.68 | 16.78 ± 0.93 | 23.3 ± 1.3 | 31.8 ± 1.8 | 44.1 ± 2.4 | 56.7 ± 3.1 | 70.8 ± 3.9
298.15 K | 2.99 ± 0.17 | 4.4 ± 0.24 | 6.62 ± 0.37 | 10.43 ± 0.58 | 13.84 ± 0.77 | 19.7 ± 1.1 | 26.2 ± 1.4 | 35.7 ± 2 | 45.6 ± 2.5 | 55.8 ± 3
303.15 K | 2.66 ± 0.15 | 3.94 ± 0.22 | 5.88 ± 0.33 | 9.06 ± 0.5 | 11.68 ± 0.65 | 16.75 ± 0.92 | 21.9 ± 1.2 | 29.3 ± 1.6 | 37.4 ± 2.1 | 44.3 ± 2.4
308.15 K | 2.39 ± 0.13 | 3.52 ± 0.2 | 5.25 ± 0.29 | 7.95 ± 0.44 | 10.04 ± 0.56 | 13.92 ± 0.77 | 19.2 ± 1.1 | 24.4 ± 1.4 | 31.1 ± 1.7 | 36 ± 2
313.15 K | 2.15 ± 0.12 | 3.16 ± 0.18 | 4.72 ± 0.26 | 7.03 ± 0.39 | 8.8 ± 0.49 | 11.81 ± 0.65 | 16.05 ± 0.88 | 20.6 ± 1.1 | 26 ± 1.4 | 29.7 ± 1.6
318.15 K | 1.94 ± 0.11 | 2.84 ± 0.16 | 4.24 ± 0.24 | 6.22 ± 0.34 | 7.8 ± 0.43 | 10.16 ± 0.56 | 13.47 ± 0.74 | 17.99 ± 0.99 | 22 ± 1.2 | 24.9 ± 1.4

CCOCCO + CCCC[n+]1ccn(C)c1.[Br-]
100 kPa, x2 = 0
Details | viscosity [mPa·s]
298.15 K | 1.81 ± 0.18
303.15 K | 1.61 ± 0.16
308.15 K | 1.45 ± 0.15
313.15 K | 1.33 ± 0.13

CC(=O)[O-].Cn1cc[nH+]c1 + CCO
293.15 K, 101.3 kPa
Details | electrical conductivity [S/m]
x2 = 0 | 0.326 ± 0.001
x2 = 0.9371 | 0.448 ± 0.001
